Experimental data from patent publication US11542234B2, “2-alkoxy-6-[18F]fluoronicotinoyl substituted lys-c(O)-glu derivatives as efficient probes for imaging of PSMA expressing tissues” (Universität zu Köln, priority 2018, dated 2023).
Where two headings read alike, the source gives them in different places.

Key:
PSMA [1] = biological target: T1, PSMA (Rattus norvegicus, UniProt P70627); test: PET study of PSMA-specific tracers in healthy rats; assay type: in vivo; settings: for signal-to-noise ratio (SCG), printed in text with / SCG signal-to-noise ratio / SCG % ID / Bone % ID / Liver % ID: PET 60-120 min after injection; for SCG signal-to-noise ratio: background dorsal from cervical vertebral column
T1 construct: ganglia as natural PSMA-expressing tissues remain constant over a long time; from tissue; host or cells: healthy Long Evans rats in vivo
From the text: Ganglia represent an ideal tissue for the evaluation of PSMA binding imaging probes. Having a size of 1-2 mm these structures are sufficiently small to imitate metastases in a very early stage. Ganglionic PSMA is expressed by satellite glial cells, which envelop the neuronal cell bodies of the trigeminal ganglion,^[25] spinal dorsal root ganglia and ganglia of the autonomic nervous system.^[26] […] Rat PSMA comprises 752 amino acids (vs. 750 in humans), and has about 91% homology to the human PSMA. Importantly, all amino acid residues of the active site are essentially the same as those in the human homologue with the only exception of Gly^548 in the human and Ser^548 in the rat protein, respectively^[28]
Conditions: Uptake of different PSMA-specific tracers in healthy rats measured by PET. Conditions: PET scanner (Focus 220, Siemens); 57-71 MBq tracer was injected. PET scans started 60 min after injection and continued for 60 min. % ID was determined by dividing each image by the injected dose and multiplying it by body weight. […] Background activity for calculation of signal-to-noise ratio was measured dorsal from the cervical vertebral column with a 390 mm^3 VOI.
Animals: Experiments were carried out in accordance with the EU directive 2010/63/EU for animal experiments and the German Animal Welfare Act (TierSchG, 2006), and were approved by regional authorities (LANUV NRW). Long Evans rats (250-590 g body weight) were used for this study. Rats were housed in pairs in individually ventilated cages (NexGen EcoFlo, cages RAT1800 with 1805 cm^2 floor space and 41 cm height; Allentown Inc., Allentown, N.J., USA) under controlled ambient conditions (22±1° C. and 55±5% relative humidity) on an inversed 12 hour light/dark schedule (lights on 9:00 p.m.-9:00 a.m.). Food and water were available at all times. Three rats received two, and one rat received three different tracers. The other seven rats were measured with one tracer only. Each tracer was measured in three animals.
PET-imaging: Prior to PET measurements with PET probes, animals were anesthetized (initial dosage: 5% isoflurane in 02/air (3:7), then reduction to 2%), and a catheter for tracer injection was inserted into the lateral tail vein. Rats were placed on an animal holder (Medres, Cologne, Germany), and fixed with a tooth bar in a respiratory mask. Dynamic PET scans in a list mode were performed using a Focus 220 micro PET scanner (CTI-Siemens, Germany) with a resolution at a center of field of view of 1.4 mm. Data acquisition started with tracer injection (66±14 MBq in 0.5 mL i.v.), continued for 120 min and was followed by a 10 min transmission scan using a ^57Co point source. For blocking studies 2-(phosphonomethyl)pentanedioic acid (2-PMPA; 23 mg/kg) was added directly to a radiotracer solution. Breathing rate was monitored and kept around 60/min by adjusting isoflurane concentration (1.5-2.5%). Body temperature was maintained at 37° C. by a feedback-controlled system. Following Fourier rebinning, data were reconstructed using an iterative OSEM3D/MAP procedure78 including attenuation and decay correction in two different ways: 1) 28 frames (2×1 min; 2×2 min, 6×4 min, 18×5 min) for compilation of regional time activity curves; 2) 4 frames (4×30 min) for visual display. Resulting voxel sizes were always 0.38×0.38×0.79 mm.
Data analysis was performed using the software VINCI.79 Images were Gauss filtered (1 mm FWHM), and % ID was determined by dividing each image by the injected dose and multiplying the result by body weight times 100. Mean % ID values were extracted from each of the 28 frames and plotted over time.

PSMA [2] = biological target: T2, PSMA (Homo sapiens, UniProt Q04609); test: Pilot PET/CT study in 10 patients, comparison with [68Ga]Ga-PSMA-HBED-CC; assay type: in vivo
T2 construct: from tissue; host or cells: patients with prostate cancer or biochemical recurrence, in vivo PET/CT
Method: Owing to the favorable imaging properties of 2-MeO-[^18F]PSMA in rats a small pilot study with this tracer in 10 patients was conducted. All patients were examined with both [^68Ga]Ga-PSMA-HBED-CC and 2-MeO-[^18F]PSMA PET CT. In each case, both PET/CT scans were carried out within three weeks. […] In four patients, at least one additional PSMA-positive lesion using 2-MeO-[^18F]PSMA compared to the corresponding [^68Ga]Ga-PSMA-HBED-CC image was identified (FIG. 6B). In one patient inconspicuous in the [^68Ga]Ga-PSMA-HBED-CC scan, a PSMA-positive lesion was discovered by 2-MeO-[^18F]PSMA PET/CT (FIG. 6C).
(§1) The study was conducted in accordance with the Institutional Review Board. All patients gave written informed consent to PET imaging and inclusion of their data in a retrospective analysis. All procedures were performed in compliance with the regulations of the responsible local authorities (District Administration of Cologne, Germany).
(§2) All measurements with [^68Ga]Ga-PSMA-HBED-CC and [^18F]-2-MeO-PSMA were carried out as described in the literature.^[14a, 15]

PSMA^+ LNCaP C4-2 cells = test: Cellular uptake in PSMA positive LNCaP C4-2 cells; assay type: cell-based; settings: for cellular uptake under inhibition with 2-PMPA: in the presence of 2-PMPA (100 μM/well)
Method: (§3) The PSMA specificity of the tracer uptake in LNCaP C4-2 was confirmed by complete inhibition with 2-PMPA (≤0.1% ID/10^5 cells). The enrichment of both tracers in PSMA^− PC3 cells was negligible (≤0.1% ID/10^5 cells).
(§4) PSMA^− PC-3 cells were cultured in RPMI-1640 medium supplemented with FBS (10%) and penicillin/streptomycin (1%). PSMA* LNCaP C4-2 cells were cultured in a mixture of DMEM: Ham's F-12K (Kaighn's) mediums (4:1) supplemented with FBS (5%), NaHCO3(3 g/L), insulin (5 μg/mL), triiodothyronine ([…]), transferrin (5 μg/mL), biotin (0.25 μg/ml) and adenine (25 μg/mL). Both cell lines were grown in 75 mL flasks containing 10 mL of the culture medium in a humidified atmosphere of 5% CO2/95% air at 37° C. for 4-5 days until they reached 80-90% confluency. Cells were seeded into 12-well plates (1×10^5 cells/well containing 1 mL medium) 24 h before the beginning of the cellular uptake experiments.
2-(Phosphonomethyl)pentanedioic acid (2-PMPA; 100 μM/well) was used for blocking studies. Thereafter, the cells were washed two times with medium (1 mL), trypsinized, harvested and the accumulated radioactivity was measured in a gamma counter (Wizard 1470, PerkinElmer, Massachusetts, USA). The cellular uptake of the novel PSMA-selective candidates and [^18F]DCFPyL obtained in experiments performed in parallel were compared. Each cellular uptake experiment was carried out in triplicate.

PSMA [3] = biological target: T2, PSMA; test: PSMA-PET imaging of patients with biochemical recurrence of prostate cancer; assay type: in vivo; settings: 124 patients with biochemical recurrence (BCR) of PCa
Method: In the subsequent larger study, 124 patients with biochemical recurrence (BCR) of PCa were examined.
as §1, §2

PSMA^− PC-3 cells = test: Cellular uptake in PSMA negative PC3 cells; assay type: cell-based
Method: as §3, §4
The corresponding PSMA specific PET probe was added to the cells (100-150 kBq/well) and the cells were incubated at 37° C. for 1 and 2 h. 2-(Phosphonomethyl)pentanedioic acid (2-PMPA; 100 μM/well) was used for blocking studies. Thereafter, the cells were washed two times with medium (1 mL), trypsinized, harvested and the accumulated radioactivity was measured in a gamma counter (Wizard 1470, PerkinElmer, Massachusetts, USA). […]

[4] = meta-analysis of data of 251 patients, detecting recurrent PCa; cited from earlier work
PSMA [5] = biological target: T2, PSMA; settings: determined earlier, for comparison; cited from earlier work
[6] = 2 h incubation, 2-MeO-[18F]PSMA and [18F]DCFPyL in parallel (FIG. 4A)
[7] = 4 h incubation, 2-MeO-[18F]PSMA and [18F]DCFPyL in parallel (FIG. 4A)
[8] = 2 h incubation, 4-MeO-[18F]PSMA and [18F]DCFPyL in parallel (FIG. 4B)
[9] = 4 h incubation, 4-MeO-[18F]PSMA and [18F]DCFPyL in parallel (FIG. 4B)
[10] = co-application of 2-PMPA (23 mg/kg)

T1 sequence (P70627 whole entry): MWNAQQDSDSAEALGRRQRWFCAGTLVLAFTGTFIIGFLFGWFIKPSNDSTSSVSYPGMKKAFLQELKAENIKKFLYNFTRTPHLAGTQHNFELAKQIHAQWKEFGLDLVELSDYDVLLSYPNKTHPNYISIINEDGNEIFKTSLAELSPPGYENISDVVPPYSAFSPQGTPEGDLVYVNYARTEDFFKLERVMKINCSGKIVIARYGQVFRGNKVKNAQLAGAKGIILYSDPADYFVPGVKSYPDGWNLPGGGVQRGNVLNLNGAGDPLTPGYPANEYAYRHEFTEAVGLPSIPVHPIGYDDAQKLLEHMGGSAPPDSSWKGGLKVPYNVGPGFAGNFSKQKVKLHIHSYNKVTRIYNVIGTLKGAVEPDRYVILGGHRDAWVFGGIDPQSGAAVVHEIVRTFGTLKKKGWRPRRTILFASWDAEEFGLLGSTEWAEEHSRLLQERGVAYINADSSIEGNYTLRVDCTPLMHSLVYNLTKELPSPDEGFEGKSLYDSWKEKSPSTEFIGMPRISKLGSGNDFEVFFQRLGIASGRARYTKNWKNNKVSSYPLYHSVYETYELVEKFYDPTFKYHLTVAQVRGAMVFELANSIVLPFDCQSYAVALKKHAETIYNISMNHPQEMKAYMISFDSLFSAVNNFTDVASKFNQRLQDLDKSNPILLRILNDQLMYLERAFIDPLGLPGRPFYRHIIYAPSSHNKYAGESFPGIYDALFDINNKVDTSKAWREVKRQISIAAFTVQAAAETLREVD
T2 sequence (Q04609 whole entry): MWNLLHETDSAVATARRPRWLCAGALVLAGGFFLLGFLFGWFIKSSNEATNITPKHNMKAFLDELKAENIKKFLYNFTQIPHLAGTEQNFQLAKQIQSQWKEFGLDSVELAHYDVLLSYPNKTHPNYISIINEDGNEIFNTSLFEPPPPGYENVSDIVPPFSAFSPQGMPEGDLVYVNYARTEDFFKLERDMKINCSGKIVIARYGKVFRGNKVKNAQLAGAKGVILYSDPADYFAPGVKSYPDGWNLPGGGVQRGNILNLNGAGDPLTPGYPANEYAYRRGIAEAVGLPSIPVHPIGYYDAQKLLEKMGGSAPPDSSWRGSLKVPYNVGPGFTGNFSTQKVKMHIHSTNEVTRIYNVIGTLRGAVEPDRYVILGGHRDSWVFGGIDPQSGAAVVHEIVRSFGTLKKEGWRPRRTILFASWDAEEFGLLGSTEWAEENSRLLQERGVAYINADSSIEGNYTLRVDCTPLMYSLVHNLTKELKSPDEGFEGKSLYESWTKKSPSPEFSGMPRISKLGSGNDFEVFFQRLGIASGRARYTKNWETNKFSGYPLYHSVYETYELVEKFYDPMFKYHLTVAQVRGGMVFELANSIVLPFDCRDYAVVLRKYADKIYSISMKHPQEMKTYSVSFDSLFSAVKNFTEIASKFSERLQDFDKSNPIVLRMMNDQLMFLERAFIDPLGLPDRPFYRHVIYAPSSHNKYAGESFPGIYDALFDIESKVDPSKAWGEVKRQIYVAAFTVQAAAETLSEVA

Structure (SMILES): COc1nc([18F])ccc1C(=O)NCCCC[C@H](NC(=O)N[C@@H](CCC(=O)O)C(=O)O)C(=O)O [2-MeO-[^18F]PSMA]
- signal-to-noise ratio (SCG), printed in text with (PSMA [1]): 8.2 ± 1.7
- SCG signal-to-noise ratio (PSMA [1]): 8.2 ± 1.7
- SCG % ID (PSMA [1]; superior cervical ganglion): 31.3±10.5 % ID
- patients inconspicuous in the [68Ga]Ga-PSMA-HBED-CC scan in whom a PSMA-positive lesion was discovered (PSMA [2]): one
- patients with at least one additional PSMA-positive lesion compared to the corresponding [68Ga]Ga-PSMA-HBED-CC image (PSMA [2]; both PET/CT scans within three weeks): four
- cellular uptake (PSMA^+ LNCaP C4-2 cells; [6]): 2.03±0.03 % ID/10^5 cells
- cellular uptake (PSMA^+ LNCaP C4-2 cells; [7]): 3.31±0.01 % ID/10^5 cells
- cellular uptake under inhibition with 2-PMPA (PSMA^+ LNCaP C4-2 cells): ≤ 0.1 % ID/10^5 cells
- sensitivity (PSMA [3]): 83.0%

Structure (SMILES): COc1cc([18F])ncc1C(=O)NCCCC[C@H](NC(=O)N[C@@H](CCC(=O)O)C(=O)O)C(=O)O [4-MeO-[^18F]PSMA]
- enrichment in PSMA^− PC3 cells (PSMA^− PC-3 cells): very low
- Bone % ID (PSMA [1]): 19.2±2.1 % ID
- Liver % ID (PSMA [1]): 29.0±7.2 % ID
- SCG signal-to-noise ratio (PSMA [1]): 4.6±1.3
- SCG % ID (PSMA [1]; superior cervical ganglion): 14.4±2.6 % ID
- cellular uptake (PSMA^+ LNCaP C4-2 cells; [8]): 0.79±0.04 % ID/10^5 cells
- cellular uptake (PSMA^+ LNCaP C4-2 cells; [9]): 0.90±0.04 % ID/10^5 cells
- cellular uptake under inhibition with 2-PMPA (PSMA^+ LNCaP C4-2 cells): completely blocked

Structure (SMILES): O=C(O)CC[C@H](NC(=O)N[C@@H](CCCCNC(=O)c1ccc([18F])nc1)C(=O)O)C(=O)O [[^18F]DCFPyL]
- uptake in the ganglion of the trigeminal nerve (PSMA [1]; 60-120 min after injection): 37.9±9.9 % ID
- Bone % ID (PSMA [1]): 12.4 ± 4.3 % ID
- Liver % ID (PSMA [1]): 65.3 ± 21.7 % ID
- Liver % ID (PSMA [1]; [10]): remained at the same level
- SCG % ID (PSMA [1]; [10]): 4.6±1.8 % ID
- SCG % ID (PSMA [1]; superior cervical ganglion): 20.2 ± 5.8 % ID
- cellular uptake (PSMA^+ LNCaP C4-2 cells; [6]): 1.55±0.05 % ID/10^5 cells
- cellular uptake (PSMA^+ LNCaP C4-2 cells; [8]): 1.53±0.03 % ID/10^5 cells
- cellular uptake (PSMA^+ LNCaP C4-2 cells; [7]): 3.1±0.03 % ID/10^5 cells
- cellular uptake (PSMA^+ LNCaP C4-2 cells; [9]): 3.16±0.01 % ID/10^5 cells

Structure (SMILES): N[C@]1(C(=O)O)C[C@@H]([18F])C1 [[^18F]FACBC, anti-1-amino-3-[^18F]fluorocyclobutane-1-carboxylic acid]
- sensitivity [4]: 87%
- specificity [4]: 66%

Structure (SMILES): O=C(O)CC[C@H](NC(=O)N[C@@H](CCCCNC(=O)[C@H](Cc1ccc2ccccc2c1)NC(=O)c1ccc(CNC(=O)[C@H](CCC(=O)O)NC(=O)[C@H](CCC(=O)O)NC(=O)c2ccc([18F])nc2)cc1)C(=O)O)C(=O)O [[^18F]PSMA-1007]
- Bone % ID (PSMA [1]): 33.2±9.5 % ID
- Liver % ID (PSMA [1]): 50.7 ± 4.3 % ID
- signal-to-noise ratio (SCG), printed in text with (PSMA [1]): 6.2 ± 1.9
- SCG signal-to-noise ratio (PSMA [1]): 6.2 ± 1.9

Structure (SMILES): O=C([O-])CN(CCN(CC(=O)[O-])Cc1cc(CCC(=O)NCCCCCC(=O)NCCCC[C@H](NC(=O)N[C@@H](CCC(=O)O)C(=O)O)C(=O)O)ccc1[O-])Cc1cc(CCC(=O)O)ccc1[O-].[68Ga+3].[OH3+] [[^68Ga]Ga-PSMA-HBED-CC]
- sensitivity (PSMA [5]): 74.2%
- Bone % ID (PSMA [1]): 18.5 ± 0.6 % ID
- Liver % ID (PSMA [1]): 47.0 ± 10.3 % ID
- SCG signal-to-noise ratio (PSMA [1]): 4.5±0.1
- SCG signal-to-noise ratio (PSMA [1]; listed as [^68Ga]PSMA-HBED-CC): 4.5 ± 0.1
- SCG % ID (PSMA [1]; superior cervical ganglion): 41.0±3.4 % ID
- SCG % ID (PSMA [1]; superior cervical ganglion, listed as [^68Ga]PSMA-HBED-CC): 41.0 ± 3.4 % ID
